The results in this text go back to patent US11116760B2 (Gilead Sciences, Inc., priority 2018, dated 2021).

The target in the test is α4β7 integrin (Homo sapiens (Human), UniProt P13612+P26010). Kind of test: α4β7 Integrin Cell Capture Assay. The test is classed as cell-based. Conditions: Table 1; capture of α4β7 expressing RPM18866 cells on MadCAM-1 extracellular domain-coated plate.
α4β7 integrin, sequence (P13612 34-1032): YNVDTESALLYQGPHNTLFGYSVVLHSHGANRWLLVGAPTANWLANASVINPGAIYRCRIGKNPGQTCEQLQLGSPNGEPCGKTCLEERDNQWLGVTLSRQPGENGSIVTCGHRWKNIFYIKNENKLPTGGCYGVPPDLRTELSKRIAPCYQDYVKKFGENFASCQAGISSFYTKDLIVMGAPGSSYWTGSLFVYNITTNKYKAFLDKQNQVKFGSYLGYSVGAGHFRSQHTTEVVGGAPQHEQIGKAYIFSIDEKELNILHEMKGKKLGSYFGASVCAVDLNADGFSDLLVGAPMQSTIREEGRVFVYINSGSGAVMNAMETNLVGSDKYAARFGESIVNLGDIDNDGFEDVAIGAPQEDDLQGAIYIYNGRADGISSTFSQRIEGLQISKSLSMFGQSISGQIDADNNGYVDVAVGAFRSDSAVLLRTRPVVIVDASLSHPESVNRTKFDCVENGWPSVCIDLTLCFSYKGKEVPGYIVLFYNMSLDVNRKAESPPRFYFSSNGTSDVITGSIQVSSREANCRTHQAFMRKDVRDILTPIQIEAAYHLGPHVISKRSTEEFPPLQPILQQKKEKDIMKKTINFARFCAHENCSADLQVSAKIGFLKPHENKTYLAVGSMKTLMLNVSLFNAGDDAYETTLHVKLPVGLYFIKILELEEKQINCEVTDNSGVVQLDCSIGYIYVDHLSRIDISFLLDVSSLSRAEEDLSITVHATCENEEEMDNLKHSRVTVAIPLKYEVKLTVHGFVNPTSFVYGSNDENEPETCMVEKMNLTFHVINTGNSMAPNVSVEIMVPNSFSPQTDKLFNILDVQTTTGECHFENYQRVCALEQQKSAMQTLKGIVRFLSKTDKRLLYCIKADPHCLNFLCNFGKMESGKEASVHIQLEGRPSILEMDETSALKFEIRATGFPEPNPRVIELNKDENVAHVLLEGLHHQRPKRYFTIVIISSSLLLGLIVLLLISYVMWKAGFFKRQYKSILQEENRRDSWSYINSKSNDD
α4β7 integrin, sequence (P26010 20-798): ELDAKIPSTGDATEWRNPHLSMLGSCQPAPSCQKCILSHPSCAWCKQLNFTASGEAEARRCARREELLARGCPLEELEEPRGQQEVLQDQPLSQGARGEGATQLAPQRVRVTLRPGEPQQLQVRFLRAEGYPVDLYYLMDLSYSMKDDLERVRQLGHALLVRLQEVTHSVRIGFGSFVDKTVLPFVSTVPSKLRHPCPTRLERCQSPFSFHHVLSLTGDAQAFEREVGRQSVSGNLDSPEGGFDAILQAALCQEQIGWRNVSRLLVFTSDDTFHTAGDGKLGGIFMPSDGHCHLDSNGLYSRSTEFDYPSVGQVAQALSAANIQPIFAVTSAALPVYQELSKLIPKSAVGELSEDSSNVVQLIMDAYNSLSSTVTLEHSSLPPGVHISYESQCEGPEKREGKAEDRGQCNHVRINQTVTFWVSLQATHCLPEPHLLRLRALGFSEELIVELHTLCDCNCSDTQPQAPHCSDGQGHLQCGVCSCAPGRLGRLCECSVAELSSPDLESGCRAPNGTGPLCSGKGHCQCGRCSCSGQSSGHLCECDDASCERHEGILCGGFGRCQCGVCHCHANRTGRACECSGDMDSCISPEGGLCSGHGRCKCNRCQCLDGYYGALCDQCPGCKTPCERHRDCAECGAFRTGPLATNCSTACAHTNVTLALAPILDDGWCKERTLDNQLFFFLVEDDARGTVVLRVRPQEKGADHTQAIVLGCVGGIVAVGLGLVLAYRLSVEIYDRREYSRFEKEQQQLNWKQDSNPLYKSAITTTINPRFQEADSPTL

On to `N#Cc1ccc(-c2ccc(C[C@H](NC(=O)c3c(F)cc(NC(C(F)(F)F)C(F)(F)F)cc3F)C(=O)O)c3cccnc23)c(Cl)c1` [Example 88, (S)-3-(8-(2-chloro-4-cyanophenyl)quinolin-5-yl)-2-(2,6-difluoro-4-((1,1,1,3,3,3-hexafluoropropan-2-yl)amino)benzamido)propanoic acid], for which the EC50 is 8.2 nM.
On to `N#Cc1ccc(-c2ccc(C[C@H](NC(=O)c3c(F)cc(N[C@H](C4CC4)C(F)(F)F)cc3F)C(=O)O)c3cccnc23)c(Cl)c1` [Example 90], for which it took 11.3 nM to reach a half-maximal effect (EC50).
The same measure for `CC[C@@H](Nc1cc(F)c(C(=O)N[C@@H](Cc2ccc(-c3c(C(F)(F)F)cc(C)n(C)c3=O)c3ncccc23)C(=O)O)c(F)c1)C(F)(F)F` [Example 91, (S)-2-(2,6-difluoro-4-(((R)-1,1,1-trifluorobutan-2-yl)amino)benzamido)-3-(8-(1,6-dimethyl-2-oxo-4-(trifluoromethyl)-1,2-dihydropyridin-3-yl)quinolin-5-yl)propanoic acid]: 0.3 nM.
The same measure for `CC[C@@H](Nc1cc(F)c(C(=O)N[C@@H](Cc2ccc(-c3nccc(OC)c3C(F)(F)F)c3ncccc23)C(=O)O)c(F)c1)C(F)(F)F` [Example 92, (S)-2-(2,6-difluoro-4-(((R)-1,1,1-trifluorobutan-2-yl)amino)benzamido)-3-(8-(4-methoxy-3-(trifluoromethyl)pyridin-2-yl)quinolin-5-yl)propanoic acid]: 2 nM; for `Cc1cc(C(F)(F)F)c(-c2ccc(C[C@H](NC(=O)c3c(F)cc(N4CCOC[C@@H]4C(F)(F)F)cc3F)C(=O)O)c3cccnc23)nc1C` [Example 94, (S)-2-(2,6-difluoro-4-((R)-3-(trifluoromethyl)morpholino)benzamido)-3-(8-(5,6-dimethyl-3-(trifluoromethyl)pyridin-2-yl)quinolin-5-yl)propanoic acid]: 0.5 nM.
The same measure for `Cc1cc(C)n(C)c(=O)c1-c1ccc(C[C@H](NC(=O)c2c(F)cc(N3CCOC[C@@H]3C(F)(F)F)cc2F)C(=O)O)c2cccnc12` [Example 95, (S)-2-(2,6-difluoro-4-((R)-3-(trifluoromethyl)morpholino)benzamido)-3-(8-(1,4,6-trimethyl-2-oxo-1,2-dihydropyridin-3-yl)quinolin-5-yl)propanoic acid]: 0.3 nM.
On to `Cc1cc(C(F)(F)F)c(-c2ccc(C[C@H](NC(=O)c3c(F)cc(N4CCOC[C@@H]4C(F)(F)F)cc3F)C(=O)O)c3cccnc23)c(=O)n1C` [Example 96, (S)-2-(2,6-difluoro-4-((R)-3-(trifluoromethyl)morpholino)benzamido)-3-(8-(1,6-dimethyl-2-oxo-4-(trifluoromethyl)-1,2-dihydropyridin-3-yl)quinolin-5-yl)propanoic acid], for which the EC50 was 0.2 nM.
For `Cn1cc(C(F)(F)F)cc(-c2ccc(C[C@H](NC(=O)c3c(F)cc(N4CCOC[C@@H]4C(F)(F)F)cc3F)C(=O)O)c3cccnc23)c1=O` [Example 98, (S)-2-(2,6-difluoro-4-((R)-3-(trifluoromethyl)morpholino)benzamido)-3-(8-(1-methyl-2-oxo-5-(trifluoromethyl)-1,2-dihydropyridin-3-yl)quinolin-5-yl)propanoic acid], the EC50 turned out to be 1.4 nM.
In turn, `COc1cc(C)nc(-c2ccc(C[C@H](NC(=O)c3c(F)cc(N4CCOC[C@@H]4C(F)(F)F)cc3F)C(=O)O)c3cccnc23)n1` [Example 99, (S)-2-(2,6-difluoro-4-((R)-3-(trifluoromethyl)morpholino)benzamido)-3-(8-(4-methoxy-6-methylpyrimidin-2-yl)quinolin-5-yl)propanoic acid] came in with a half-maximal effective concentration (EC50) of 11.2 nM. This EC50 is about 8-fold higher than that of the molecule before.
On to `Cc1cc(Cl)c(-c2ccc(C[C@H](NC(=O)c3c(F)cc(N4CCOC[C@@H]4C(F)(F)F)cc3F)C(=O)O)c3cccnc23)c(=O)n1C` [Example 100, (S)-3-(8-(4-chloro-1,6-dimethyl-2-oxo-1,2-dihydropyridin-3-yl)quinolin-5-yl)-2-(2,6-difluoro-4-((R)-3-(trifluoromethyl)morpholino)benzamido)propanoic acid], for which the EC50 is 0.7 nM. This EC50 lies about 16-fold lower than the previous one.
The same measure for `CN(C)c1cccnc1-c1ccc(C[C@H](NC(=O)c2c(F)cc(N3CCOC[C@@H]3C(F)(F)F)cc2F)C(=O)O)c2cccnc12` [Example 101, (S)-2-(2,6-difluoro-4-((R)-3-(trifluoromethyl)morpholino)benzamido)-3-(8-(3-(dimethylamino)pyridin-2-yl)quinolin-5-yl)propanoic acid]: 4.1 nM.
The same measure for `COc1cc(C)n(C)c(=O)c1-c1ccc(C[C@H](NC(=O)c2c(F)cc(N3CCOC[C@@H]3C(F)(F)F)cc2F)C(=O)O)c2cccnc12` [Example 102, (S)-2-(2,6-difluoro-4-((R)-3-(trifluoromethyl)morpholino)benzamido)-3-(8-(4-methoxy-1,6-dimethyl-2-oxo-1,2-dihydropyridin-3-yl)quinolin-5-yl)propanoic acid]: 0.3 nM.
The same measure for `Cc1cc(N2CCC2)c(-c2ccc(C[C@H](NC(=O)c3c(F)cc(N4CCOC[C@@H]4C(F)(F)F)cc3F)C(=O)O)c3cccnc23)c(=O)n1C` [Example 103, (S)-3-(8-(4-(azetidin-1-yl)-1,6-dimethyl-2-oxo-1,2-dihydropyridin-3-yl)quinolin-5-yl)-2-(2,6-difluoro-4-((R)-3-(trifluoromethyl)morpholino)benzamido)propanoic acid]: 0.7 nM; for `Cn1c(=O)c(-c2ccc(C[C@H](NC(=O)c3c(F)cc(N4CCOC[C@@H]4C(F)(F)F)cc3F)C(=O)O)c3cccnc23)cc2ccccc21` [Example 104, (S)-2-(2,6-difluoro-4-((R)-3-(trifluoromethyl)morpholino)benzamido)-3-(1-methyl-2-oxo-1,2-dihydro-[3,8′-biquinolin]-5′-yl)propanoic acid]: 0.5 nM; for `CN(C)c1ccnc(-c2ccc(C[C@H](NC(=O)c3c(F)cc(N4CCOC[C@@H]4C(F)(F)F)cc3F)C(=O)O)c3cccnc23)c1C(F)(F)F` [Example 105, (S)-2-(2,6-difluoro-4-((R)-3-(trifluoromethyl)morpholino)benzamido)-3-(8-(4-(dimethylamino)-3-(trifluoromethyl)pyridin-2-yl)quinolin-5-yl)propanoic acid]: 4.1 nM.
For the molecule `Cc1c(C(F)(F)F)cn(C)c(=O)c1-c1ccc(C[C@H](NC(=O)c2c(F)cc(N3CCOC[C@@H]3C(F)(F)F)cc2F)C(=O)O)c2cccnc12` [Example 106, (S)-2-(2,6-difluoro-4-((R)-3-(trifluoromethyl)morpholino)benzamido)-3-(8-(1,4-dimethyl-2-oxo-5-(trifluoromethyl)-1,2-dihydropyridin-3-yl)quinolin-5-yl)propanoic acid], the EC50 was 0.3 nM.
The same measure for `CC[C@@H](Nc1cc(F)c(C(=O)N[C@@H](Cc2ccc(-n3c(=O)c4cc(N(C)C)ccc4n(C)c3=O)c3ncccc23)C(=O)O)c(F)c1)C(F)(F)F` [Example 108, (S)-2-(2,6-difluoro-4-(((R)-1,1,1-trifluorobutan-2-yl)amino)benzamido)-3-(8-(6-(dimethylamino)-1-methyl-2,4-dioxo-1,4-dihydroquinazolin-3(2H)-yl)quinolin-5-yl)propanoic acid]: 1 nM.
